GI50 and TGI data for ten molecules are collected here from PubChem BioAssay (NCI).

The GI50 is the concentration that inhibits growth by half. As a reminder, the TGI is the concentration giving total growth inhibition. Lower therefore signals greater sensitivity of the cells.

Molecules are shown by their SMILES. Several values for one entry are separate records, joined by “and”; a condition that tells them apart may be missing. Equal entries are not always repeated.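 Values below derive from 48-hour exposures of cells grown in 96-well plates, with endpoints linearly interpolated between the two concentrations bracketing the appropriate inhibition level. The concentration for 50% growth inhibition is given as GI50. TGI marks complete inhibition of growth.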 Some results are limits rather than exact numbers.

Test systems include HCC-2998 colon; LOX IMVI melanoma; DMS 114 small cell lung; ACHN renal; TK-10 renal; SK-OV-3 ovarian; HOP-92 NSCLC; M14 melanoma; SNB-78 CNS; MDA-MB-231 breast.
What all share (assay): DTP human tumour cell line panel, 48 h

Regarding `CC1[C@@H]2CC=C3[C@H]4CCC5Cc6nc7c(nc6C[C@@]5(C)C4(O)CC(=O)[C@]32CO[C@]12OC(C)(C)CC2O)CC1CC[C@@H]2C3=C[C@H]4O[C@@]5(O[C@@](C)(CO)C[C@@H]5O)C(C)[C@@]4(O)[C@]3(C)[C@@H](O)CC2[C@]1(C)C7` (some centres undefined), the GI50 in the assay on HCC-2998 colon was 0.321 µM; in the assay with LOX IMVI melanoma, 0.00015 µM and 0.00114 µM; in the assay with DMS 114 small cell lung, 0.000367 µM; in the assay with ACHN renal, 0.00257 µM; with SK-OV-3 ovarian, 0.000461 µM and 0.00249 µM; in the assay on HOP-92 NSCLC, 0.000104 µM and 0.00036 µM. For the same molecule, the GI50 with M14 melanoma was 0.000135 µM. Also, the TGI was more than 3.6 µM with HCC-2998 colon, 0.381 µM with ACHN renal, 0.307 µM in the assay on TK-10 renal and 0.000363 µM in the assay on M14 melanoma.
Regarding `Cc1ccc(C2=C(c3ccc(C)cc3)C(c3ccc(C)cc3)=C(c3ccc(C)cc3)C2=O)cc1`, the concentration for total growth inhibition (TGI) in the assay with SNB-78 CNS, in the assay on ACHN renal, in the assay with TK-10 renal, with SK-OV-3 ovarian and with M14 melanoma was more than 100 µM throughout.
With `C[C@@H](COCCC(=O)N1CCN(c2ncc(C(F)(F)F)cn2)CC1)Nc1cn[nH]c(=O)c1C(F)(F)F`, the GI50 in the assay on HCC-2998 colon was more than 100 µM; in the assay with LOX IMVI melanoma, 27.9 µM; in the assay on MDA-MB-231 breast, more than 100 µM; with ACHN renal, 28.3 µM; with TK-10 renal, more than 100 µM; with SK-OV-3 ovarian it was 53 µM. For the same molecule, the GI50 with HOP-92 NSCLC is 0.323 µM; with M14 melanoma it was 32.9 µM. In addition, the TGI in the assay on HCC-2998 colon, in the assay with LOX IMVI melanoma, with MDA-MB-231 breast, in the assay on ACHN renal, in the assay on TK-10 renal and with SK-OV-3 ovarian was more than 100 µM throughout. Moreover, the TGI in the assay on HOP-92 NSCLC was more than 65.7 µM; in the assay on M14 melanoma it was more than 100 µM.
Turning to `COc1cc2c3c(n(CCCBr)c(=O)c2cc1OC)-c1ccc(F)cc1C3=O`, the GI50 in the assay with HCC-2998 colon is 13.7 µM; with LOX IMVI melanoma it was 5.48 µM; in the assay on MDA-MB-231 breast, 66.3 µM; with ACHN renal, 4.47 µM; in the assay on TK-10 renal, 32.7 µM; in the assay on SK-OV-3 ovarian it was 15.8 µM. Also, the GI50 was 4.07 µM with HOP-92 NSCLC and 8.92 µM in the assay with M14 melanoma. For the same molecule, the TGI was more than 100 µM with HCC-2998 colon; 30.1 µM in the assay on LOX IMVI melanoma; more than 100 µM in the assay with MDA-MB-231 breast; 36.3 µM in the assay on ACHN renal; more than 100 µM in the assay on TK-10 renal; 59 µM in the assay with SK-OV-3 ovarian. For the same molecule, the TGI was 28.4 µM in the assay with HOP-92 NSCLC and more than 100 µM in the assay with M14 melanoma.
For `COc1cccc(CCC(=O)c2cc3c(N)c(C(=O)Nc4cccc(Cl)c4C)sc3nc2C)c1`, the GI50 is 2.18 µM in the assay with HCC-2998 colon; 0.664 µM in the assay on LOX IMVI melanoma; 1.4 µM in the assay with MDA-MB-231 breast; 0.743 µM with ACHN renal; 6.46 µM in the assay on TK-10 renal; 1.53 µM in the assay on SK-OV-3 ovarian. In addition, the figures for the GI50 in the assay with HOP-92 NSCLC and in the assay on M14 melanoma were 0.753 µM and 0.446 µM, respectively. The TGI is more than 50.8 µM in the assay on HCC-2998 colon; more than 100 µM in the assay with LOX IMVI melanoma; more than 78.6 µM in the assay with MDA-MB-231 breast; more than 100 µM in the assay on ACHN renal; more than 100 µM in the assay with TK-10 renal; more than 75.6 µM in the assay with SK-OV-3 ovarian. Moreover, the TGI in the assay on HOP-92 NSCLC and in the assay on M14 melanoma was more than 100 µM in each case.
Regarding `O=C1c2ccccc2-c2c1c1ccc([N+](=O)[O-])cc1c(=O)n2CCCNCCO`, the GI50 in the assay with HCC-2998 colon was 0.817 µM; with LOX IMVI melanoma, 0.0665 µM; in the assay on MDA-MB-231 breast it was 1.95 µM; in the assay with ACHN renal it was 0.0496 µM; in the assay on TK-10 renal it was 1.37 µM; with SK-OV-3 ovarian, 0.525 µM. The GI50 is 0.0259 µM in the assay on HOP-92 NSCLC and 0.0904 µM with M14 melanoma. The TGI in the assay with HCC-2998 colon was 2.13 µM; with LOX IMVI melanoma it was 0.348 µM; with MDA-MB-231 breast it was 3.83 µM; in the assay with ACHN renal, 0.48 µM; in the assay on TK-10 renal, 4.1 µM; in the assay with SK-OV-3 ovarian, 2.56 µM. Moreover, the TGI was determined as 0.0899 µM with HOP-92 NSCLC and 1.4 µM in the assay with M14 melanoma.
As for `C=C1CCCC2[C@](C)(CC3=C(O)C(=O)C=C(OC)C3=O)[C@@H](C)CC[C@]12C` (some centres undefined), the TGI with LOX IMVI melanoma was more than 100 µM; with DMS 114 small cell lung, 7.61 µM; in the assay on ACHN renal it was 47.7 µM; with TK-10 renal it was more than 100 µM; in the assay on SK-OV-3 ovarian, 62.2 µM; in the assay with M14 melanoma, 5.03 µM.
For `Nc1nccc2c1ncn2C1OC(CO)C(O)C1O` (centres undefined), the GI50 in the assay on HCC-2998 colon is more than 100 µM; with LOX IMVI melanoma, 94.1 µM; with MDA-MB-231 breast, more than 100 µM; in the assay on ACHN renal, more than 100 µM; with TK-10 renal, more than 100 µM; with SK-OV-3 ovarian, more than 100 µM. In addition, the GI50 in the assay on HOP-92 NSCLC was 92.2 µM; with M14 melanoma it was more than 100 µM. In addition, the TGI with HCC-2998 colon, in the assay with LOX IMVI melanoma, in the assay on MDA-MB-231 breast, with ACHN renal, with TK-10 renal and in the assay on SK-OV-3 ovarian was more than 100 µM each time. Besides, the TGI in the assay on HOP-92 NSCLC and in the assay with M14 melanoma was more than 100 µM in each case.
For the molecule `NCCCN1CCN(CCCNc2nc3ccccc3c3[nH]c4ccccc4c23)CC1`, the GI50 is 0.0895 µM in the assay with HCC-2998 colon; 0.409 µM in the assay with LOX IMVI melanoma; 0.456 µM in the assay on MDA-MB-231 breast; 0.378 µM in the assay on ACHN renal; 0.81 µM with TK-10 renal; 6.7 µM in the assay with SK-OV-3 ovarian. The GI50 with HOP-92 NSCLC is 0.346 µM; with M14 melanoma it was 1.27 µM. For the same molecule, the TGI in the assay on HCC-2998 colon was found to be 0.758 µM; with LOX IMVI melanoma, 1.81 µM; in the assay with MDA-MB-231 breast, 1.72 µM; with ACHN renal, 3.75 µM; in the assay with TK-10 renal, 11.1 µM; with SK-OV-3 ovarian, 41.4 µM. Moreover, the results for the TGI in the assay on HOP-92 NSCLC and with M14 melanoma were 2.1 µM and 2.76 µM, respectively.
Turning to `Cc1ccc2nc(-c3ccc(N)c4ccccc34)[nH]c2c1`, the GI50 was 0.356 µM in the assay with HCC-2998 colon; 0.0801 µM in the assay with LOX IMVI melanoma; 0.0899 µM with MDA-MB-231 breast; 0.987 µM with ACHN renal; 0.878 µM with TK-10 renal; 0.283 µM in the assay with SK-OV-3 ovarian. For the same molecule, the GI50 in the assay on HOP-92 NSCLC was 2.62 µM; with M14 melanoma it was 0.054 µM. The TGI in the assay on HCC-2998 colon is 12.1 µM; in the assay on LOX IMVI melanoma, 15.2 µM; in the assay on MDA-MB-231 breast it was 13.3 µM; with ACHN renal, 37.1 µM; with TK-10 renal, 59.6 µM; with SK-OV-3 ovarian, more than 46.7 µM. Also, the TGI with HOP-92 NSCLC was determined as 49.1 µM; with M14 melanoma, 0.427 µM.
